± gives the uncertainty stated by the source.
Legend:
[1] = tested on: Klebsiella pneumoniae ATCC 13882; assay: onset of ureolytic pH increase; higher = more delayed ureolysis (inhibition)
Method: (§1)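 Klebsiella pneumoniae ATCC 13882 (start OD600 0.05) grown in M9U medium with 40 mM urea and phenol red plus inhibitor, in triplicate in 96-well plates. A557 and OD630 were read every 15 min for 24 h. Ureolysis was followed as the pH-related A557-A630: onset time, Gompertz-fit rate and final value. Growth was followed as OD630.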

[2] = tested on: Klebsiella pneumoniae ATCC 13882; assay: final OD630 (growth) after 24 h; higher = more bacterial growth; extreme values may be limits of the assay
Method: as §1

[3] = tested on: Klebsiella pneumoniae ATCC 13882; assay: rate of pH (A557-A630) increase, Gompertz fit (10^-4 s-1); higher = faster ureolysis; extreme values may be limits of the assay
Method: as §1

[4] = tested on: Klebsiella pneumoniae ATCC 13882; assay: final pH-related absorbance (A557-A630) after 24 h (absorbance units); higher = more ureolysis; extreme values may be limits of the assay
Method: as §1

## O=C(O)CCC(CC(=O)O)C(=O)O (configuration not stated) [1,2,4-butanetricarboxylic acid]
[1]; 0.1 mM
  onset of ureolytic pH increase: 11.425 ± 0.00233 h
[1]; 1 mM
  onset of ureolytic pH increase: 11.31 ± 0.055 h
[1]; 10 mM
  onset of ureolytic pH increase: > 15 h
[2]; 0.1 mM
  final OD630: 0.424 ± 0.0051
[2]; 1 mM
  final OD630: 0.433 ± 0.0031
[2]; 10 mM
  final OD630: 0
[3]; 0.1 mM
  rate of pH: 1.526 ± 0.014
[3]; 1 mM
  rate of pH: 1.58 ± 0.019
[3]; 10 mM
  rate of pH: 0
[4]; 0.1 mM
  final pH-related absorbance: 0.33 ± 0.0058
[4]; 1 mM
  final pH-related absorbance: 0.277 ± 0.0026
[4]; 10 mM
  final pH-related absorbance: 0

## NC(=S)Nc1cccc(C(=O)O)c1 [1-(3-Carboxyphenyl)-2-thiourea]
[1]; 0.00075 mM
  onset of ureolytic pH increase: 7.27 ± 0.108 h
[1]; 0.0075 mM
  onset of ureolytic pH increase: 7.06 ± 0.3 h
[1]; 0.075 mM
  onset of ureolytic pH increase: 7.25 ± 0.107 h
[2]; 0.00075 mM
  final OD630: 0.489 ± 0.005
[2]; 0.0075 mM
  final OD630: 0.51 ± 0.017
[2]; 0.075 mM
  final OD630: 0.49 ± 0.01
[3]; 0.00075 mM
  rate of pH: 1.92 ± 0.078
[3]; 0.0075 mM
  rate of pH: 2.06 ± 0.18
[3]; 0.075 mM
  rate of pH: 2.15 ± 0.048
[4]; 0.00075 mM
  final pH-related absorbance: 0.246 ± 0.012
[4]; 0.0075 mM
  final pH-related absorbance: 0.27 ± 0.023
[4]; 0.075 mM
  final pH-related absorbance: 0.24 ± 0.011

## O[C@@H](CS)[C@@H](O)CS [1.4-dithiothreitol]
[1]; 0.1 mM
  onset of ureolytic pH increase: 10.2 ± 0.317 h
[1]; 1 mM
  onset of ureolytic pH increase: 16.3 ± 0.317 h
[1]; 10 mM
  onset of ureolytic pH increase: 16.84 ± 0.118 h
[2]; 0.1 mM
  final OD630: 0.432 ± 0.079
[2]; 1 mM
  final OD630: 0.306 ± 0.0084
[2]; 10 mM
  final OD630: 0.264 ± 0.0063
[3]; 0.1 mM
  rate of pH: 1.81 ± 0.074
[3]; 1 mM
  rate of pH: 0.11 ± 0.0047
[3]; 10 mM
  rate of pH: 0.0642 ± 0.0044
[4]; 0.1 mM
  final pH-related absorbance: 0.381 ± 0.013
[4]; 1 mM
  final pH-related absorbance: 0.274 ± 0.02
[4]; 10 mM
  final pH-related absorbance: 0.137 ± 0.013

## O=C1CC(=O)NC(=S)N1 [2-Thiobarbituric acid]
[1]; 0.012 mM
  onset of ureolytic pH increase: 9.28 ± 0.0217 h
[1]; 0.118 mM
  onset of ureolytic pH increase: 9.68 ± 0.4 h
[1]; 1.18 mM
  onset of ureolytic pH increase: > 15 h
[2]; 0.012 mM
  final OD630: 0.449 ± 0.007
[2]; 0.118 mM
  final OD630: 0.437 ± 0.008
[2]; 1.18 mM
  final OD630: 0.303 ± 0.028
[3]; 0.012 mM
  rate of pH: 2.14 ± 0.06
[3]; 0.118 mM
  rate of pH: 2.04 ± 0.024
[3]; 1.18 mM
  rate of pH: 0
[4]; 0.012 mM
  final pH-related absorbance: 0.201 ± 0.008
[4]; 0.118 mM
  final pH-related absorbance: 0.194 ± 0.006
[4]; 1.18 mM
  final pH-related absorbance: 0

## O=[N+]([O-])C(Br)(CO)CO [2-bromo-2-nitropropane-1.3-diol]
[1]; 0.1 mM
  onset of ureolytic pH increase: > 25 h
[1]; 1 mM
  onset of ureolytic pH increase: > 25 h
[1]; 10 mM
  onset of ureolytic pH increase: > 25 h
[2]; 0.1 mM
  final OD630: 0
[2]; 1 mM
  final OD630: 0
[2]; 10 mM
  final OD630: 0
[3]; 0.1 mM
  rate of pH: 0
[3]; 1 mM
  rate of pH: 0
[3]; 10 mM
  rate of pH: 0
[4]; 0.1 mM
  final pH-related absorbance: 0
[4]; 1 mM
  final pH-related absorbance: 0
[4]; 10 mM
  final pH-related absorbance: 0

## OCCS [2-mercaptoethanol]
[1]; 0.1 mM
  onset of ureolytic pH increase: 10 ± 0.125 h
[1]; 1 mM
  onset of ureolytic pH increase: > 25 h
[1]; 10 mM
  onset of ureolytic pH increase: > 25 h
[2]; 0.1 mM
  final OD630: 0.416 ± 0.0027
[2]; 1 mM
  final OD630: 0.208 ± 0.0036
[2]; 10 mM
  final OD630: 0.155 ± 0.0041
[3]; 0.1 mM
  rate of pH: 1.72 ± 0.061
[3]; 1 mM
  rate of pH: 0
[3]; 10 mM
  rate of pH: 0
[4]; 0.1 mM
  final pH-related absorbance: 0.19 ± 0.0096
[4]; 1 mM
  final pH-related absorbance: 0
[4]; 10 mM
  final pH-related absorbance: 0

## CC1=CC(=O)C(C)=CC1=O [2.5-dimethyl-1.4-benzoquinone]
[1]; 0.011 mM
  onset of ureolytic pH increase: 9.905 ± 0.04 h
[1]; 0.107 mM
  onset of ureolytic pH increase: 15.8 h
[1]; 1.07 mM
  onset of ureolytic pH increase: 0 min
[2]; 0.011 mM
  final OD630: 0.33 ± 0.011
[2]; 0.107 mM
  final OD630: 0.336
[2]; 1.07 mM
  final OD630: 0
[3]; 0.011 mM
  rate of pH: 1.46 ± 0.047
[3]; 0.107 mM
  rate of pH: 1.97
[3]; 1.07 mM
  rate of pH: 0.535 ± 0.0079
[4]; 0.011 mM
  final pH-related absorbance: 0.152 ± 0.0068
[4]; 0.107 mM
  final pH-related absorbance: 0.116
[4]; 1.07 mM
  final pH-related absorbance: 0.475 ± 0.011

## O=c1oc2ccccc2c(O)c1Cc1c(O)c2ccccc2oc1=O [3.3'-methylene-bis-(4-hydroxycoumarin)]
[1]; 0.0035 mM
  onset of ureolytic pH increase: 9.383 ± 0.0183 h
[1]; 0.035 mM
  onset of ureolytic pH increase: 9.87 ± 0.5 h
[1]; 0.35 mM
  onset of ureolytic pH increase: 10.2 ± 0.148 h
[2]; 0.0035 mM
  final OD630: 0.424 ± 0.0021
[2]; 0.035 mM
  final OD630: 0.409 ± 0.012
[2]; 0.35 mM
  final OD630: 0.403 ± 0.0058
[3]; 0.0035 mM
  rate of pH: 1.45 ± 0.019
[3]; 0.035 mM
  rate of pH: 1.44 ± 0.039
[3]; 0.35 mM
  rate of pH: 1.4
[4]; 0.0035 mM
  final pH-related absorbance: 0.161 ± 0.0024
[4]; 0.035 mM
  final pH-related absorbance: 0.158 ± 0.0007
[4]; 0.35 mM
  final pH-related absorbance: 0.16 ± 0.0029

## OB(O)c1ccc(Br)cc1 [4-bromophenylboronic acid]
[1]; 0.0017 mM
  onset of ureolytic pH increase: 12.4 ± 0.317 h
[1]; 0.017 mM
  onset of ureolytic pH increase: 0 min
[1]; 0.173 mM
  onset of ureolytic pH increase: > 25 h
[2]; 0.0017 mM
  final OD630: 0.451 ± 0.0066
[2]; 0.017 mM
  final OD630: 0
[2]; 0.173 mM
  final OD630: 0
[3]; 0.0017 mM
  rate of pH: 0.0566 ± 0.0019
[3]; 0.017 mM
  rate of pH: 0.0294 ± 0.0052
[3]; 0.173 mM
  rate of pH: 0
[4]; 0.0017 mM
  final pH-related absorbance: 0.12 ± 0.0018
[4]; 0.017 mM
  final pH-related absorbance: 0.269 ± 0.042
[4]; 0.173 mM
  final pH-related absorbance: 0

## CC(=O)NO [Acetohydroxamic acid]
[1]; 0.1 mM
  onset of ureolytic pH increase: 8.46 ± 0.217 h
[1]; 1 mM
  onset of ureolytic pH increase: 12.1 ± 0.153 h
[1]; 10 mM
  onset of ureolytic pH increase: > 15 h
[2]; 0.1 mM
  final OD630: 0.479 ± 0.016
[2]; 1 mM
  final OD630: 0.356 ± 0.01
[2]; 10 mM
  final OD630: 0.258 ± 0.004
[3]; 0.1 mM
  rate of pH: 1.12 ± 0.047
[3]; 1 mM
  rate of pH: 1.31 ± 0.054
[3]; 10 mM
  rate of pH: 0
[4]; 0.1 mM
  final pH-related absorbance: 0.437 ± 0.044
[4]; 1 mM
  final pH-related absorbance: 0.057 ± 0.006
[4]; 10 mM
  final pH-related absorbance: 0

## CC(=O)NC(N)=S [Acetylthiourea]
[1]; 0.05 mM
  onset of ureolytic pH increase: 7.13 ± 0.148 h
[1]; 0.5 mM
  onset of ureolytic pH increase: 7.095 ± 0.065 h
[1]; 5 mM
  onset of ureolytic pH increase: 6.92 ± 0.267 h
[2]; 0.05 mM
  final OD630: 0.491 ± 0.011
[2]; 0.5 mM
  final OD630: 0.491 ± 0.004
[2]; 5 mM
  final OD630: 0.507 ± 0.021
[3]; 0.05 mM
  rate of pH: 2 ± 0.057
[3]; 0.5 mM
  rate of pH: 2.03 ± 0.042
[3]; 5 mM
  rate of pH: 2.62 ± 0.37
[4]; 0.05 mM
  final pH-related absorbance: 0.241 ± 0.011
[4]; 0.5 mM
  final pH-related absorbance: 0.246 ± 0.002
[4]; 5 mM
  final pH-related absorbance: 0.284 ± 0.05

## O=[N+]([O-])[O-].[Ag+] [AgNO3]
[1]; 0.1 mM
  onset of ureolytic pH increase: > 25 h
[1]; 1 mM
  onset of ureolytic pH increase: > 25 h
[1]; 10 mM
  onset of ureolytic pH increase: > 25 h
[2]; 0.1 mM
  final OD630: 0
[2]; 1 mM
  final OD630: 0
[2]; 10 mM
  final OD630: 0
[3]; 0.1 mM
  rate of pH: 0
[3]; 1 mM
  rate of pH: 0
[3]; 10 mM
  rate of pH: 0
[4]; 0.1 mM
  final pH-related absorbance: 0
[4]; 1 mM
  final pH-related absorbance: 0
[4]; 10 mM
  final pH-related absorbance: 0

## NCCNCCNCCN [Triethylenetetraamine]
[2]; 0.1 mM
  final OD630: 0.448 ± 0.091
[2]; 1 mM
  final OD630: 0.384 ± 0.017
[2]; 10 mM
  final OD630: 0
